Experimental data from paper PMC6832141, “Synthesis and Cyclooxygenase Inhibition of Sulfonamide-Substituted (Dihydro)Pyrrolo[3,2,1-hi]indoles and Their Potential Prodrugs” (Molecules, 2019).

Tests used:
[1] = Lipophilicity, logD7.4 by HPLC method (Donovan and Pescatore); format: physicochemical; settings: HPLC column ODP-50 4B (Shodex Asahipak 50 × 4.6 mm); pH 7.4, HPLC system 2, MeOH/PBS gradient
Description: The lipophilicity of all synthesized compounds was determined as logD7.4HPLC value (Table 1) using an HPLC method originally described by Donovan and Pescatore.
Column chromatography was performed using silica gel (mesh size 40–63 µm). Thin-layer chromatography (TLC) was performed on silica gel F-254 aluminum plates and visualized using UV (254 nm/366 nm). Analytical HPLC analysis was carried out with the following systems: (system 1) Agilent 1200 HPLC (Santa Clara, CA, USA; pump G1311A, autosampler G1329A, column oven G1316A, degasser G1322A, UV detector G1315D, γ detector Gabi Star (Raytest), Luna C18 column (Phenomenex, 250 × 4.6 mm), flow rate = 1 mL/min, isocratic eluent (MeCN/0.1% TFA in H2O 70/30 (v/v)); (system 2) Agilent 1100 HPLC (Santa Clara, CA, USA; binary pump G1312A, autosampler G1313A, column oven G1316A, degasser G1322A, UV detector G1314A, γ detector Gabi Star (Raytest, Straubenhardt, Germany); column ODP-50 4B (Shodex Asahipak 50 × 4.6 mm); eluent: MeOH/PBS (10 mM, pH 7.4) gradient t0 min 30/70 - t25 min 95/5 - t27 min 95/5 - t28 min 30/70 - t40 min 30/70, flow rate = 0.6 mL/min; (system 3) waters UPLC I-Class (Milford, MA, USA; binary gradient pump BSM, autosampler FTN, column manager CM, and diode array detector PDAeλ coupled to Waters Xevo TQ-S), column Aquity UPLC® BEH C18 column (waters, 100 × 2.1 mm, 1.7 µm, 130 Å), eluent: (A): 0.1% acetic acid in MeCN/MeOH 1/1/(B): 0.1% acetic acid in H2O; flow rate 0.4 mL/min), gradient: t0 min 45/55 - t0.5 min 45/55 - t5.5 min 95/5 - t7.0 min 95/5 - t8.0 min 45/55 – t8.5 min 45/55; (system 4) column (Kinetex C-18 (Phenomenex 50 × 2.1 mm, 1.7 µm, 100 Å), Shimadzu Nexera X2 UHPLC system (Kyoto, Japan; degasser DGU-20A3R and DGU-20A5R, pump LC-30AD, autosampler SIL-30AC, column oven CTO-20AC with two column switching valves FCV-14AH, diode array detector SPD-M30A, γ detector Gabi Star (Raytest, Straubenhardt, Germany), communication bus module CBM-20A), eluent: (A): MeCN, (B): 0.1% trifluoroacetic acid in H2O; flow rate 0.5 mL/min), gradient: t0 min 25/75 - t0.3 min 25/75 - t4.0 min 75/25 - t4.5 min 95/5 - t5.5 min 95/5 - t6.0 min 25/75 – t7.5 min 25/75. The products were monitored by an UV detector at 254 nm and purity of all compounds exceeded 95% as determined by analytical HPLC analysis (system 1 or system 3), unless otherwise stated. Semi-preparative HPLC was performed using the following system: column (C-18 Jupiter Proteo (Phenomenex 250 × 21.1 mm, 4 µm, 90 Å), Shimadzu prominence modular HPLC system (Kyoto, Japan; degasser DGU-20A5R, 2× pump LC-20AR, autosampler SIL-20AC HT, column oven CTO-20AC with column switching valve, diode array detector SPD-M20A, fluorescence detector RF-20A, and fraction collector FRC-10A, communication bus module CBM-20A), isocratic eluent 0.1% TFA in MeCN/0.1% TFA in H2O 70/30, flow rate = 10 mL/min.
The logD7.4HPLC value was determined as previously reported by us utilizing an HPLC method originally described by Donovan and Pescatore[18]. […]

human COX-2 = biological target: T1, human COX-2 (Homo sapiens, UniProt P35354); experiment: COX Fluorescent Inhibitor Screening Assay Kit (Cayman 700100), COX-2; format: biochemical; settings: for SI (selectivity index): SI = IC50 (COX-1)/IC50 (COX-2); for IC50: human COX-2, values marked ** : compounds were screened at a concentration of 100 µM
T1 construct: purchased Cayman Chemical 700100
T1 sequence (P35354 18-604): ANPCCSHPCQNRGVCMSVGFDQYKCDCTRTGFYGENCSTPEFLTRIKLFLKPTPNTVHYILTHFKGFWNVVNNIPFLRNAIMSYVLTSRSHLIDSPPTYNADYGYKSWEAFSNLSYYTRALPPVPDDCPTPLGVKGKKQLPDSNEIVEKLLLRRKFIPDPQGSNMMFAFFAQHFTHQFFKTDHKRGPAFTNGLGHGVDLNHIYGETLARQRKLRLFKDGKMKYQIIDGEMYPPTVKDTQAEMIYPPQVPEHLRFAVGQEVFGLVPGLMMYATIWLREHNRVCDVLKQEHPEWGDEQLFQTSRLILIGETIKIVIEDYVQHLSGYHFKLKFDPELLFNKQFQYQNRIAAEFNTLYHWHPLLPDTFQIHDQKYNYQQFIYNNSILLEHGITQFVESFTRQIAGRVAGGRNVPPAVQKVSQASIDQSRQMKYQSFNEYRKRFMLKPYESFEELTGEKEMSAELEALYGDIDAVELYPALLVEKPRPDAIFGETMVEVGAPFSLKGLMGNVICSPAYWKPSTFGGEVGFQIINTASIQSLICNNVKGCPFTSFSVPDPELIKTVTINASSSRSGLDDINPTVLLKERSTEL

ovine COX-1 = biological target: T2, ovine COX-1 (Ovis aries, UniProt P05979); experiment: COX Fluorescent Inhibitor Screening Assay Kit (Cayman 700100), COX-1; format: biochemical; settings: values marked ** : compounds were screened at a concentration of 100 µM
T2 construct: purchased Cayman Chemical 700100
T2 sequence (P05979 25-600): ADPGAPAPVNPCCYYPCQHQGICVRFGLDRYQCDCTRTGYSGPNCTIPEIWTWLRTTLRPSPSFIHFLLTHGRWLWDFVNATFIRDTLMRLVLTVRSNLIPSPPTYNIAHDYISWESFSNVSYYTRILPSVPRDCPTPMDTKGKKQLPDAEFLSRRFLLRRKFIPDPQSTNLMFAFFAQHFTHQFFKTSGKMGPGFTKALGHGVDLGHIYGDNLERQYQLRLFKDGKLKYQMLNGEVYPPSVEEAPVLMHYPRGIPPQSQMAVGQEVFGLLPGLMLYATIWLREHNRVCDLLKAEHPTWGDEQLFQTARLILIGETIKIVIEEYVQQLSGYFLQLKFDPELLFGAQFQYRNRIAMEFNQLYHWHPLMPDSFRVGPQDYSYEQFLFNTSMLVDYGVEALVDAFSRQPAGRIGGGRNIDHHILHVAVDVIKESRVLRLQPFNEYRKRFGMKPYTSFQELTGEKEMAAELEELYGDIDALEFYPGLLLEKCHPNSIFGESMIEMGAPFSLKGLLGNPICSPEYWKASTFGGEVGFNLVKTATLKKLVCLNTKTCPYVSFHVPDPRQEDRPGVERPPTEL

[2] = cited from earlier work

chromatographic logD [1]	SI (selectivity index) (human COX-2)	IC50 (human COX-2)	IC50 (ovine COX-1)	melting point	SMILES	water solubility [2]
2.3	>3.8	26.5 µM	> 100 µM	–	CCC(=O)NS(=O)(=O)c1ccc(-c2c(-c3ccc(F)cc3)c3cccc4ccn2c43)cc1 [4d, N-({4-[1-(4-fluorophenyl)pyrrolo[3,2,1-hi]indol-2-yl]phenyl}sulfonyl)propionamide]	–
2.24	–	–	–	–	CCC(=O)NS(=O)(=O)c1ccc(-c2c(-c3ccccc3)c3cccc4ccn2c43)cc1 [4a, N-{[4-(1-phenylpyrrolo[3,2,1-hi]indol-2-yl)phenyl]sulfonyl}propionamide]	–
2.49	>3.8	26.4 µM	> 100 µM	–	CCC(=O)NS(=O)(=O)c1ccc(-c2c(-c3ccc(Cl)cc3)c3cccc4c3n2CC4)cc1 [3c, N-({4-[5-(4-chlorophenyl)-1,2-dihydropyrrolo[3,2,1-hi]indol-4-yl]phenyl}sulfonyl)propionamide]	–
2.2	–	> 100 µM	> 100 µM	–	CCC(=O)NS(=O)(=O)c1ccc(-c2c(-c3ccc(F)cc3)c3cccc4c3n2CC4)cc1 [3d, N-({4-[5-(4-fluorophenyl)-1,2-dihydropyrrolo[3,2,1-hi]indol-4-yl]phenyl}sulfonyl)propionamide]	–
2.6	>9.1	11 µM	> 100 µM	–	CCC(=O)NS(=O)(=O)c1ccc(-c2c(-c3ccc(Cl)cc3)c3cccc4ccn2c43)cc1 [4c, N-({4-[1-(4-chlorophenyl)pyrrolo[3,2,1-hi]indol-2-yl]phenyl}sulfonyl)propionamide]	–
2.48	>2.9	33.9 µM	> 100 µM	–	CCC(=O)NS(=O)(=O)c1ccc(-c2c(-c3ccc(C)cc3)c3cccc4ccn2c43)cc1 [4b, N-({4-[1-(p-tolyl)pyrrolo[3,2,1-hi]indol-2-yl]phenyl}sulfonyl)propionamide]	–

The remaining lines, values behind:

SMILES	chromatographic logD [1]	SI (selectivity index) (human COX-2)	IC50 (human COX-2)	IC50 (ovine COX-1)	melting point	water solubility [2]
NS(=O)(=O)c1ccc(-c2c(-c3ccccc3)c3cccc4c3n2CC4)cc1 [1a, 5-Phenyl-4-[4-(sulfamoyl)phenyl]-1,2-dihydropyrrolo[3,2,1-hi]indole]	4.44	355	0.107 µM	38 µM	–	–
Cc1ccc(-c2c(-c3ccc(S(N)(=O)=O)cc3)n3ccc4cccc2c43)cc1 [2b, 2-[4-(Sulfamoyl)phenyl]-1-(p-tolyl)pyrrolo[3,2,1-hi]indole]	4.73	>1087	0.092 µM	> 100 µM	233 to 235 °C	–
CCC(=O)NS(=O)(=O)c1ccc(-c2c(-c3ccccc3)noc2C)cc1 [Parecoxib sodium]	–	–	–	–	–	> 50 mg/mL
NS(=O)(=O)c1ccc(-c2c(-c3ccc(Cl)cc3)c3cccc4c3n2CC4)cc1 [1c, 5-(4-Chlorophenyl)-4-[4-(sulfamoyl)phenyl]-1,2-dihydropyrrolo[3,2,1-hi]indole]	4.9	144	0.106 µM	15.3 µM	–	–
NS(=O)(=O)c1ccc(-c2c(-c3ccc(F)cc3)c3cccc4ccn2c43)cc1 [2d, 1-(4-Fluorophenyl)-2-[4-(sulfamoyl)phenyl]pyrrolo[3,2,1-hi]indole]	4.64	>1124	0.089 µM	> 100 µM	258 to 259 °C	–
NS(=O)(=O)c1ccc(-c2c(-c3ccc(Cl)cc3)c3cccc4ccn2c43)cc1 [2c, 1-(4-Chlorophenyl)-2-[4-(sulfamoyl)phenyl]pyrrolo[3,2,1-hi]indole]	4.89	>1136	0.088 µM	> 100 µM	270 to 273 °C	–
CCC(=O)NS(=O)(=O)c1ccc(-c2c(-c3ccccc3)c3cccc4c3n2CC4)cc1 [3a, N-{[4-(5-phenyl-1,2-dihydropyrrolo[3,2,1-hi]indol-4-yl)phenyl]sulfonyl}propionamide]	2.05	–	> 100 µM	> 100 µM	–	–
CCC(=O)NS(=O)(=O)c1ccc(-c2c(-c3ccc(C)cc3)c3cccc4c3n2CC4)cc1 [3b, N-({4-[5-(p-tolyl)-1,2-dihydropyrrolo[3,2,1-hi]indol-4-yl]phenyl}sulfonyl)propionamide]	2.31	–	> 100 µM	> 100 µM	–	–
NS(=O)(=O)c1ccc(-c2c(-c3ccccc3)c3cccc4ccn2c43)cc1 [2a, 1-Phenyl-2-[4-(sulfamoyl)phenyl]pyrrolo[3,2,1-hi]indole]	4.59	>1887	0.053 µM	> 100 µM	218 to 220 °C	–
NS(=O)(=O)c1ccc(-c2c(-c3ccc(F)cc3)c3cccc4c3n2CC4)cc1 [1d, 5-(4-Fluorophenyl)-4-[4-(sulfamoyl)phenyl]-1,2-dihydropyrrolo[3,2,1-hi]indole]	4.53	85	0.092 µM	7.8 µM	–	–
Cc1ccc(-c2c(-c3ccc(S(N)(=O)=O)cc3)n3c4c(cccc24)CC3)cc1 [1b, 4-[4-(Sulfamoyl)phenyl]-5-(p-tolyl)-1,2-dihydropyrrolo[3,2,1-hi]indole]	4.56	237	0.253 µM	59.9 µM	–	–
